Values after ≈ are worked out from the molar mass of the structure shown. Active and inactive are the calls of the source. The rule behind the calls is not given here.
Legend:
[1] = system: Candida orthopsilosis; test: Antifungal activity against Candida orthopsilosis clinical isolate bloodstream form assessed as time required for 99.9% reduction in fungal growth at 0.25 mg/L by time-kill assay; type: functional
[2] = system: Candida orthopsilosis; test: Antifungal activity against Candida orthopsilosis clinical isolate bloodstream form assessed as time required for 99.9% reduction in fungal growth at 32 mg/L by time-kill assay; type: functional
[3] = system: Candida metapsilosis; test: Antifungal activity against Candida metapsilosis clinical isolate bloodstream form assessed as time required for 50% reduction in fungal growth at 0.25 mg/L by time-kill assay; type: functional
[4] = system: Candida metapsilosis; test: Antifungal activity against Candida metapsilosis clinical isolate bloodstream form assessed as time required for 50% reduction in fungal growth at 16 mg/L by time-kill assay; type: functional
[5] = system: Candida metapsilosis; test: Antifungal activity against Candida metapsilosis clinical isolate bloodstream form assessed as time required for 90% reduction in fungal growth at 1 mg/L by time-kill assay; type: functional
[6] = system: Candida metapsilosis; test: Antifungal activity against Candida metapsilosis clinical isolate bloodstream form assessed as time required for 90% reduction in fungal growth at 32 mg/L by time-kill assay; type: functional
[7] = system: Candida metapsilosis; test: Antifungal activity against Candida metapsilosis clinical isolate bloodstream form assessed as time required for 99.9% reduction in fungal growth at 32 mg/L by time-kill assay; type: functional
[8] = system: Candida parapsilosis; test: Antifungal activity against Candida parapsilosis clinical isolate bloodstream form assessed as time required for 50% reduction in fungal growth at 0.25 mg/L by time-kill assay; type: functional
[9] = system: Candida parapsilosis; test: Antifungal activity against Candida parapsilosis clinical isolate bloodstream form assessed as time required for 50% reduction in fungal growth at 1 mg/L by time-kill assay; type: functional
[10] = system: Candida parapsilosis; test: Antifungal activity against Candida parapsilosis clinical isolate bloodstream form assessed as time required for 50% reduction in fungal growth at 32 mg/L by time-kill assay; type: functional
[11] = system: Candida parapsilosis; test: Antifungal activity against Candida parapsilosis clinical isolate bloodstream form assessed as time required for 90% reduction in fungal growth at 1 mg/L by time-kill assay; type: functional
[12] = system: Candida parapsilosis; test: Antifungal activity against Candida parapsilosis clinical isolate bloodstream form assessed as time required for 90% reduction in fungal growth at 16 mg/L by time-kill assay; type: functional
[13] = system: Candida parapsilosis; test: Antifungal activity against Candida parapsilosis clinical isolate bloodstream form assessed as time required for 99% reduction in fungal growth at 0.25 mg/L by time-kill assay; type: functional
[14] = system: Candida parapsilosis; test: Antifungal activity against Candida parapsilosis clinical isolate bloodstream form assessed as time required for 99% reduction in fungal growth at 1 mg/L by time-kill assay; type: functional
[15] = system: Candida parapsilosis; test: Antifungal activity against Candida parapsilosis clinical isolate bloodstream form assessed as time required for 99.9% reduction in fungal growth at 0.25 mg/L by time-kill assay; type: functional
[16] = system: Candida parapsilosis; test: Antifungal activity against Candida parapsilosis clinical isolate bloodstream form assessed as time required for 99.9% reduction in fungal growth at 1 mg/L by time-kill assay; type: functional
[17] = system: Candida parapsilosis; test: Antifungal activity against Candida parapsilosis clinical isolate bloodstream form assessed as time required for 99.9% reduction in fungal growth at 4 mg/L by time-kill assay; type: functional
[18] = system: Candida parapsilosis; test: Antifungal activity against Candida parapsilosis clinical isolate bloodstream form assessed as time required for 99.9% reduction in fungal growth at 32 mg/L by time-kill assay; type: functional
[19] = system: Candida metapsilosis; test: Antifungal activity against Candida metapsilosis clinical isolate bloodstream form assessed as time required for 99.9% reduction in fungal growth at 1 mg/L by time-kill assay; type: functional
[20] = system: Candida orthopsilosis; test: Fungicidal activity against Candida orthopsilosis isolate CP-150 bloodstream form by CLSI method; type: functional; conditions: Lodderomyces orthopsilosis
[21] = system: Candida orthopsilosis; test: Fungicidal activity against Candida orthopsilosis isolate ATC194 bloodstream form by CLSI method; type: functional; conditions: Lodderomyces orthopsilosis, isolate ATC-194
[22] = system: Candida metapsilosis; test: Fungicidal activity against Candida metapsilosis isolate CP-133 bloodstream form by CLSI method; type: functional; conditions: Lodderomyces metapsilosis
[23] = system: Candida parapsilosis; test: Fungicidal activity against Candida parapsilosis isolate CP-301 bloodstream form by CLSI method; type: functional; conditions: Lodderomyces parapsilosis
[24] = system: Candida parapsilosis; test: Fungicidal activity against Candida parapsilosis isolate CP-302 bloodstream form by CLSI method; type: functional; conditions: Lodderomyces parapsilosis
[25] = system: Candida parapsilosis; test: Fungicidal activity against Candida parapsilosis ATCC 22019 bloodstream form by CLSI method; type: functional; conditions: Lodderomyces parapsilosis
[26] = system: Candida parapsilosis; test: Antifungal activity against Candida parapsilosis clinical isolate bloodstream form assessed as fungal count at 4 mg/L measured at 6 hrs by time-kill assay; type: functional
[27] = system: Candida parapsilosis; test: Antifungal activity against Candida parapsilosis clinical isolate bloodstream form assessed as inhibition of fungal regrowth at 0.03 to 32 mg/L after 6 hrs by time-kill assay; type: functional, organism-based
[28] = system: Candida orthopsilosis; test: Antifungal activity against Candida orthopsilosis clinical isolate bloodstream form assessed as induction of fungal killing rate at 0.03 to 32 mg/L measured at 6 hrs by time-kill assay; type: functional, organism-based
[29] = system: Candida orthopsilosis; test: Antifungal activity against Candida orthopsilosis clinical isolate bloodstream form assessed as induction of maximal fungal death at 16 mg/L after 48 hrs by time-kill assay; type: functional, organism-based
[30] = system: Candida metapsilosis; test: Antifungal activity against Candida metapsilosis clinical isolate bloodstream form assessed as induction of maximal fungal death at 16 mg/L after 48 hrs by time-kill assay; type: functional, organism-based
[31] = system: Candida parapsilosis; test: Antifungal activity against Candida parapsilosis clinical isolate bloodstream form assessed as minimum concentration required for => 3-log decrease in fungal growth after 12 to 48 hrs by time-kill assay; type: functional
[32] = system: Candida orthopsilosis; test: Antifungal activity against Candida orthopsilosis clinical isolate bloodstream form assessed as time required for 50% reduction in fungal growth at 16 mg/L by time-kill assay; type: functional
[33] = system: Candida orthopsilosis; test: Antifungal activity against Candida orthopsilosis clinical isolate bloodstream form assessed as time required for 90% reduction in fungal growth at 0.25 mg/L by time-kill assay; type: functional
[34] = system: Candida orthopsilosis; test: Antifungal activity against Candida orthopsilosis clinical isolate bloodstream form assessed as time required for 90% reduction in fungal growth at 1 mg/L by time-kill assay; type: functional
[35] = system: Candida orthopsilosis; test: Antifungal activity against Candida orthopsilosis clinical isolate bloodstream form assessed as time required for 90% reduction in fungal growth at 32 mg/L by time-kill assay; type: functional
[36] = system: Candida orthopsilosis; test: Antifungal activity against Candida orthopsilosis clinical isolate bloodstream form assessed as time required for 99% reduction in fungal growth at 1 mg/L by time-kill assay; type: functional
[37] = system: Candida orthopsilosis; test: Antifungal activity against Candida orthopsilosis clinical isolate bloodstream form assessed as time required for 99% reduction in fungal growth at 4 mg/L by time-kill assay; type: functional
[38] = system: Candida orthopsilosis; test: Antifungal activity against Candida orthopsilosis clinical isolate bloodstream form assessed as time required for 99% reduction in fungal growth at 16 mg/L by time-kill assay; type: functional

CC[C@H](C)C[C@H](C)CCCCCCCCC(=O)N[C@H]1C[C@@H](O)[C@@H](NCCN)NC(=O)[C@@H]2[C@@H](O)CCN2C(=O)[C@H]([C@H](O)CCN)NC(=O)[C@H]([C@H](O)[C@@H](O)c2ccc(O)cc2)NC(=O)[C@@H]2C[C@@H](O)CN2C(=O)[C@H]([C@@H](C)O)NC1=O [CASPOFUNGIN]
Time [1]: >48 h | Time [2]: >48 h | Time [3]: >48 h | Time [4]: 2.59 h | Time [5]: >48 h | Time [6]: 6.6 h | Time [7]: 19.8 h | Time [8]: >48 h | Time [9]: 22.3 h | Time [10]: 1.99 h | Time [11]: >48 h | Time [12]: 8.61 h | Time [13]: >48 h | Time [14]: >48 h | Time [15]: >48 h | Time [16]: >48 h | Time [17]: >48 h | Time [18]: >48 h | Time [19]: >48 h | MIC [20]: 0.5 µg/mL (≈ 0.457 µM) | MIC [21]: 0.5 µg/mL (≈ 0.457 µM) | MIC [22]: 0.5 µg/mL (≈ 0.457 µM) | MIC [23]: 2 µg/mL (≈ 1.83 µM) | MIC [24]: 2 µg/mL (≈ 1.83 µM) | MIC [25]: 1 µg/mL (≈ 0.915 µM) | log10cfu [26]: 1.43 /ml | inhibition [27]: inactive | Activity [28]: inactive | Activity [29]: Active | Activity [30]: Active | MED [31]: 14 mg/L | Time [32]: 3.86 h | Time [33]: >48 h | Time [34]: 24.75 h | Time [35]: 34.97 h | Time [36]: >48 h | Time [37]: 22.7 h | Time [38]: 25.64 h
